Test results: patent publication US20240139190A1, “NOVEL ANTIPARASITIC COMPOUNDS AND METHODS” (The Board of Regents of The University of Texas System, priority 2019, published 2024)
“Also recorded” adds a separate entry of the source. Like-named read-outs stand apart in the source and are kept apart here.

Key:
[1] = system: L. amazonensis axenic amastigotes; experiment: alamarBlue viability / concentration-response assay, axenic amastigotes; format: cell-based, Leishmania amazonensis; settings: 72 h, axenic amastigotes, read-out: EC50^72 h against L. amazonensis axenic amastigotes
Protocol: Leishmania amazonensis axenic amastigotes (100 μL, 2×10^6 cells/mL) were added to 96-multiwell plates containing 100 μL of amastigote culture medium with an appropriate compound dilution series. 0.1% DMSO (no drug) served as a positive control (100%), and 5 μM amphotericin B served as a negative growth control (0%). Only internal wells were used to minimize edge effects from evaporation. Axenic amastigotes were incubated at 32° C. with a compound/drug for 72 h prior to measurement. Similarly, the cytotoxicity of each compound was determined against RAW 264.7 cells and HepG2 cell lines, following 72 h incubation at 37° C. (promastigotes at 26° C.).
10% alamarBlue® (Thermo Fisher Scientific) was used to measure the growth of both parasite and mammalian cells. Conversion from a blue oxidized state to a pink reduced state was assessed visually at 6 hr. The fluorescence signal was measured with a BioTek Synergy H1 plate reader (530 nm excitation, 570 nm emission). For bioluminescence assays using L. amazonensisluc, relative luminescence units (RLU) were measured using Britelite Plus (PerkinElmer, USA). Luminescence produced by this luciferase reaction is proportional to the amount of luciferase-expressing, viable L. amazonensisluc. Following five-minute incubation at room temperature, the luminescence was measured with a BioTek Synergy H1 plate reader.
All experiments were conducted as three technical triplicates on the same plate, with at least three independent biological repeats of each plate performed. For all assays, percent growth was expressed as a proportion of the untreated (positive) control (i.e. 100%) and plotted against drug/compound concentration. The concentration was then log10 transformed and EC50 values were determined using nonlinear regression (sigmoidal dose-response/variable slope equation) in GraphPad Prism v5.0 (GraphPad Software, Inc., San Diego, CA).
To identify antileishmanial compounds, a microplate-based alamarBlue® assay was used to quickly triage the 400 drug-like compounds available in the MMV Pathogen Box collection. […] A three-step process was used to screen the Pathogen Box: 1) identify hits against axenic amastigotes, 2) confirm the inhibitory concentrations of these hits against axenic amastigotes, 3) evaluate hits for potency against intracellular parasites using fluorescence and bioluminescence-based intracellular assays. The MMV Pathogen Box resource was tested at two concentrations (5 μM and 1 μM, 72 h endpoint) on axenic amastigotes.
Hits were defined as compounds that, at a concentration of 1 μM, decreased the relative fluorescence intensity signal to ≤70% of that produced by parasites incubated in vehicle (0.06% DMSO) only (FIG. 9).

[2] = system: blood-stage Trypanosoma brucei; experiment: CellTiter-Glo luminescent assay; format: cell-based
Protocol: The parasites were synchronized using sequential sorbitol lysis treatment, with experiments carried out at least one intra-erythrocytic cycle later. T. brucei single marker (SM) cells were maintained at log phase growth (<1.5×10^6 cells/mL) in HMI-19 media supplemented with 10% FBS (Gibco) and 2.5 μg/mL G418 (Life Technologies) at 37° C. and 5% CO2.
Compounds were tested against the blood-stage Trypanosoma brucei (48 hr endpoint) and intra-erythrocytic asexual stages Plasmodium falciparum (3D7) using CellTiter-Glo® luminescent and Malaria SYBR green I fluorescence (MSF) assays, respectively. Similar methodology will be used for future experiments.
MMV676477 was tested against several other parasites: the axenic amastigotes of Leishmania donovani and Leishmania tarentolae, blood-stage Plasmodium falciparum, and Trypanosoma brucei. The compound's activity was measured using alamarBlue®, Malaria SYBR green I fluorescence (MSF) and CellTiter-Glo® luminescent assays. […] In addition, MMV676477 has also been recently reported as having potent activity against Neospora caninum, Cryptosporidium parvum, Toxoplasma gondii, and Entamoeba histolytica.

[3] = system: intracellular L. amazonensis amastigotes; experiment: Intracellular washout assay (LD50); format: cell-based, Leishmania amazonensis
Protocol: Intracellular LD50s were measured. Briefly, RAW 264.7 cells were seeded to 96-multiwell plates at a density of 2×10^5 cells/mL (200 μL) and starved overnight at 37° C. The cells were infected with metacyclic promastigotes at a Multiplicity of Infection (MOI) of 15 and incubated for another 24 h at 37° C. The plates containing infected RAW 264.7 cells/BM primary M #s were washed five times with serum-free DMEM. Serially diluted compounds were added, and plates were incubated at 37° C. for 72 hrs. Wells were washed five times with DMEM, and the RAW 264.7 cells were lysed with 100 μL of 2 mg/mL saponin in DMEM for 5 min at room temperature, and further lysis was stopped with 100% FBS. After centrifugation, 200 μL acidic promastigotes media was replaced, plates were incubated at 26° C. for 96 h. Fluorescence intensity (alamarBlue®) was measured as described above.
All routine in vitro quantification of antileishmanial drug potency is quantification of “cytostatic” potency. […] Therefore, the cytocidal action of MMV676477 was quantified by obtaining an LD50 at 72 h (a Lethal Dose that kills 50% of the bulk population of the parasites relative to untreated control) and compared it to the known cytocidal drug amphotericin. An intracellular washout assay was employed. […] The ratio of LD50:EC50 was calculated for MMV676477 and amphotericin. Lower ratios indicate that the LD50 is similar to the EC50 value, meaning that the estimated EC50 values represent killing of the parasites rather than simple growth inhibition.

[4] = system: cellular tubulin of L. amazonensis; experiment: Polymerized vs. unpolymerized tubulin in parasites (differential centrifugation, western blot); format: cell-based, Leishmania amazonensis; settings: 24 h at EC50^72 h, densitometry
Text: One reason why MMV676477 might affect parasite cell division is that, like paclitaxel, it might affect microtubule polymerization, either directly or indirectly. The degree to which MMV676477 affected microtubules polymerization in cells was examined. […] Centrifugation of these extracts allowed separation of insoluble polymeric (pellet) and soluble dimeric (supernatant) tubulin. […] The intensity of α-tubulin staining was examined by normalizing it to the intensity of a membrane protein (gp46 for promastigotes in FIG. 4D; p8 for amastigotes in FIG. 4E).

purified porcine tubulin = target: T1, purified porcine tubulin (Sus scrofa, UniProt P02550+P02554); experiment: Fluorescent microtubule assembly assay; format: biochemical; settings: mammalian tubulin, fluorescence micrographs
T1 construct: purchased Cytoskeleton, Inc. T240
T1 sequence (P02550 whole entry): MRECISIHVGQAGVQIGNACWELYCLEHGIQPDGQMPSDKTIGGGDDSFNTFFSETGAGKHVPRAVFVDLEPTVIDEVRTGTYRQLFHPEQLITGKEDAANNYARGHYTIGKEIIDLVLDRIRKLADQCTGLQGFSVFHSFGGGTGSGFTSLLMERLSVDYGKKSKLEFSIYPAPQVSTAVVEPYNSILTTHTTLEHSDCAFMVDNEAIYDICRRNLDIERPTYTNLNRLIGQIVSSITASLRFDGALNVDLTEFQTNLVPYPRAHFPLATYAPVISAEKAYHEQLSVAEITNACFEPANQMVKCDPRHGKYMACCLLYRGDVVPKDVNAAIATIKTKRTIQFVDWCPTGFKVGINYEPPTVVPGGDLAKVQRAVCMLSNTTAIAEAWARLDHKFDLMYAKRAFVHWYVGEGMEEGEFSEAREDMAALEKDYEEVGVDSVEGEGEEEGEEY
T1 sequence (P02554 whole entry): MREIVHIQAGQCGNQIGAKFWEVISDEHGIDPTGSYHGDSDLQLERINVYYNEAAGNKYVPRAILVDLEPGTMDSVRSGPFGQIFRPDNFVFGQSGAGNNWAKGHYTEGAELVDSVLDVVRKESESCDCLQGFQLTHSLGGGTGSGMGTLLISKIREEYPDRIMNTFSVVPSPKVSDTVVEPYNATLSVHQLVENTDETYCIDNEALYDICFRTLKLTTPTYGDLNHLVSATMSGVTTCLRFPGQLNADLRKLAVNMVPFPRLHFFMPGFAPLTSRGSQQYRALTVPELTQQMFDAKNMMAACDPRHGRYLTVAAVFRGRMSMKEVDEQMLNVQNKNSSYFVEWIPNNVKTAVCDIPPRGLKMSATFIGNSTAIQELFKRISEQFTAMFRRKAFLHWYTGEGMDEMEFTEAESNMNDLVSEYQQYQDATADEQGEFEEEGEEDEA
Protocol: To determine the selectivity of MMV676477, purified porcine tubulin was exposed to a serial dilution of the drug (0 to 25 μM) and absorbance was measured at 340 nm over time. […] To ensure that the absorbance seen at 340 nm reflected microtubule formation and not precipitation, a fluorescent microtubule assembly assay was employed.

CCc1c(C)nc(-n2nc(C)cc2NC(=O)c2ccccc2SC)[nH]c1=O [MMV676477, N-(1-(5-Ethyl-4-methyl-6-oxo-1,6-dihydropyrimidin-2-yl)-3-methyl-1H-pyrazol-5-yl)-2-(methylthio)benzamide] was tested, and the EC50 [1] was 78 nM, the EC50 ([1]; Leishmania amazonensis) was 79 nM and the “activity against Trypanosoma brucei (in words)” value [2] was “nanomolar-range cytocidal potency; also recorded: broad activity; also recorded: nanomolar concentrations”. For the same compound, the LD50/EC50 ratio ([3]; intracellular amastigotes) was 1.2, the “LD50 72 h” value ([3]; intracellular washout, 72 h) was 620 nM and the “proportion of cellular polymeric tubulin” value [4] was “significantly increased the proportion of cellular polymeric tubulin”. For the same compound, the “microtubules formed vs control” value (purified porcine tubulin) was “many more microtubules were formed”.
